From patent US20240368132A1, “ROCK2 INHIBITORS AND USES THEREOF” (President and Fellows of Harvard College, priority 2021, published 2024)

Columns and labels:
[1] = molecular target: T1, ROCK2 (Homo sapiens, UniProt O75116); test: ROCK2 kinase assay (Reaction Biology Hot Spot kinase assay); format: biochemical; details: purified kinase, 33P-ATP (10 μM), P81 filter-binding method
T1 construct: purchased Reaction Biology
Experimental: (§1) ROCK2 and ROCK] kinase assays
(§2) ROCK2 and ROCK1 enzyme potencies were determined by Reaction Biology (www.reactionbiology.com) using their Hot Spot kinase Assay. The base reaction buffer for the assay was 20 mM Hepes (pH 7.5), 10 mM MgCl2, 1 mM EGTA, 0.01% Brij35, 0.02 mg/mL BSA, 0.1 mM Na3VO4, and 2 mM DTT with a 1% DMSO concentration. Required cofactors were added individually to each kinase reaction. The substrate was freshly prepared in the reaction buffer described above, and then cofactors were delivered. The purified kinase was added to the substrate solution and then gently mixed. Compounds were added from 100% DMSO into the kinase reaction mixture by Acoustic technology (Echo550; nanoliter range) and then incubated for 20 min at room temperature. ^33P-ATP (10 μM) was delivered to initiate the reaction, and then the mixture was incubated again for two hours at room temperature. […] Nat. Biotechnol. 2011 Oct. 30; 29(11):1039-45. doi: 10.1038/nbt.2017.
(§3) The compounds were categorized based on IC50 value as “+”, “++”, “+++”, and “++++”. The category “+” refers to compounds with ROCK IC50 value of >10 μM. The category “++” refers to compounds with a ROCK IC50 value of 10 to 3 μM. The category “+++” refers to compounds with ROCK IC50 value of 3 to 0.3 μM. The category “++++” refers to compounds with a ROCK IC50 value of <0.3 μM. “ND” refers to “not determined.” The compound of an “Example Number” is the final product of an Example entitled the Example Number.

[2] = molecular target: T2, ROCK1 (Homo sapiens, UniProt Q13464); test: ROCK1 kinase assay (Reaction Biology Hot Spot kinase assay); format: biochemical; details: purified kinase, 33P-ATP (10 μM), P81 filter-binding method
T2 construct: purchased Reaction Biology
Experimental: as §1, §2, §3

T2 sequence (Q13464 whole entry): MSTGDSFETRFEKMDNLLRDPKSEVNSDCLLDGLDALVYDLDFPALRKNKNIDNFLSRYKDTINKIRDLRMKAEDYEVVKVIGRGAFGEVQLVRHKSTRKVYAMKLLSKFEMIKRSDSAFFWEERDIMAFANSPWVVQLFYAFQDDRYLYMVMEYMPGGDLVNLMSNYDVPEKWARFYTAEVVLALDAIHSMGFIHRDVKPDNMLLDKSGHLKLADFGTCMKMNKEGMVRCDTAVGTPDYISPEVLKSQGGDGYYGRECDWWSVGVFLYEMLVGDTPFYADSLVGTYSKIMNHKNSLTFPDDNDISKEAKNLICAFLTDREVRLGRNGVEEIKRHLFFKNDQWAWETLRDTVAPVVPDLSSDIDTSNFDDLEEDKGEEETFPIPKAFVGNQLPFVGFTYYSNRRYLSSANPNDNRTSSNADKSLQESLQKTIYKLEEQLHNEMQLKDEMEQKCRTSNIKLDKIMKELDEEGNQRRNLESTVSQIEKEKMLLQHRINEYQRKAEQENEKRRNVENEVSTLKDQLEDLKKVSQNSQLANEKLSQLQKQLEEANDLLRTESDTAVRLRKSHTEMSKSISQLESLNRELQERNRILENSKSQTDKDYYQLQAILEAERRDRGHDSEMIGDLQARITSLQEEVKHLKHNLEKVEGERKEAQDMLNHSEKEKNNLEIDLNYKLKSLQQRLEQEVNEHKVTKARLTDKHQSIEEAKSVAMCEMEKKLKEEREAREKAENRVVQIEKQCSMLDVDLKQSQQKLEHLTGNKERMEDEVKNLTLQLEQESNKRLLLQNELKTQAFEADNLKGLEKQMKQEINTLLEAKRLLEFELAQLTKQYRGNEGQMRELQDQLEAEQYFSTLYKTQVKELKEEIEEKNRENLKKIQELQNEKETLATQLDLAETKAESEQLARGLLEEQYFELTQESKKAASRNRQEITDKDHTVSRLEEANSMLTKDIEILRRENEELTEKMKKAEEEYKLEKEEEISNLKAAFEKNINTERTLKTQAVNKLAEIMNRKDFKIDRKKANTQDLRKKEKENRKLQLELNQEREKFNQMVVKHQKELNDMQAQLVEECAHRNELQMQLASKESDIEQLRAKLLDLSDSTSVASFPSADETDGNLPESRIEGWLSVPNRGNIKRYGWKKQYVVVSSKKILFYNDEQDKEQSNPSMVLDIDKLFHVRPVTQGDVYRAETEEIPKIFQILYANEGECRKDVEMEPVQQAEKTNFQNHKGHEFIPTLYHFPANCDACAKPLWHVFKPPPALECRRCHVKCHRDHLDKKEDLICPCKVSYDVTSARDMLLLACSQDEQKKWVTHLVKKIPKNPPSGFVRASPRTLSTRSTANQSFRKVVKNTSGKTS
T1 sequence (O75116 whole entry): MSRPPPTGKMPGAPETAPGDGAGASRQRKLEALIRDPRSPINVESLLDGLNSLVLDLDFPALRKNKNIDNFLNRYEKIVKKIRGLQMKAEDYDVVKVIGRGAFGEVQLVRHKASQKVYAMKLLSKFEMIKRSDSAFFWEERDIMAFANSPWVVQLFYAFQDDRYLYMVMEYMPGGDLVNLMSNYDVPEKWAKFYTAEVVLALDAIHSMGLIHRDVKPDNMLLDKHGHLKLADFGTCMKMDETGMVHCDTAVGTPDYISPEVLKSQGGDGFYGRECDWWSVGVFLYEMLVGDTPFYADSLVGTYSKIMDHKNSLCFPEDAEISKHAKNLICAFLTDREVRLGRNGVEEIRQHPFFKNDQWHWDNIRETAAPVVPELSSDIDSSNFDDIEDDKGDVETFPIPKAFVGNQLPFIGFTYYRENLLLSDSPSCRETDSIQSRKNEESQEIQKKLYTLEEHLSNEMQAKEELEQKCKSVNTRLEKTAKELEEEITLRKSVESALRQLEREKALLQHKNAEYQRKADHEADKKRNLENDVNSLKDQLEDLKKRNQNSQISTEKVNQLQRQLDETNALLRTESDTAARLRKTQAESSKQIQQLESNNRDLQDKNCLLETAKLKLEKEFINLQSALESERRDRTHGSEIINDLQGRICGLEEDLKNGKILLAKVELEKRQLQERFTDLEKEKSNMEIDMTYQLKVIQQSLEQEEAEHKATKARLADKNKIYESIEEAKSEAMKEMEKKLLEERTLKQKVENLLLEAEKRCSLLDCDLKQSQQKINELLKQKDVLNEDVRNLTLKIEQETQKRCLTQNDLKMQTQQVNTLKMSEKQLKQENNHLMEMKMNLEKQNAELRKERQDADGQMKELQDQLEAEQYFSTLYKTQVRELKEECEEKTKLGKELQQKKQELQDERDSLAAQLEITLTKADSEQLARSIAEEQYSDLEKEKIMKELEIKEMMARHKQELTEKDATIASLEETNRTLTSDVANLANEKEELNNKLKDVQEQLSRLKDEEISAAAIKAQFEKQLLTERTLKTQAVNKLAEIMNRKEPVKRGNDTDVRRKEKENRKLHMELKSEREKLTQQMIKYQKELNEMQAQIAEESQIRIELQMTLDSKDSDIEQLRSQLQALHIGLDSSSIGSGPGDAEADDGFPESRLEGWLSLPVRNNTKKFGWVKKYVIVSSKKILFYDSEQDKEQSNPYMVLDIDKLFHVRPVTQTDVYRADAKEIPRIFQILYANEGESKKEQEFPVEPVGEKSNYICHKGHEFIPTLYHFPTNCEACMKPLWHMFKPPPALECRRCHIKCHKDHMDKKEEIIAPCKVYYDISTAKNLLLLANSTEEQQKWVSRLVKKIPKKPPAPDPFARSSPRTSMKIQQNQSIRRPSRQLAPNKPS

| SMILES | IC50 [1] | IC50 [2] |
| --- | --- | --- |
| Cn1cc(C(=O)Nc2cccc(-c3nnc(Nc4ccc5[nH]ncc5c4Cl)o3)c2)cn1 [Example 55, N-(3-(5-((4-chloro-1H-indazol-5-yl)amino)-1,3,4-oxadiazol-2-yl)phenyl)-1-methyl-1H-pyrazole-4-carboxamide] | < 300 nM | < 300 nM |
| Cn1cc(C(=O)Nc2cccc(-n3nc(Nc4ccc5[nH]ncc5c4Cl)c4ccccc43)c2)cn1 [Example 31] | < 300 nM | 300 to 3000 nM |
| Cc1cn(-c2cccc(NC(=O)c3cnn(C)c3)c2)nc1Nc1ccc2[nH]ncc2c1 [Example 3, N-(3-(3-((1H-indazol-5-yl)amino)-4-methyl-1H-pyrazol-1-yl)phenyl)-1-methyl-1H-pyrazole-4-carboxamide] | < 300 nM | < 300 nM |
| Cn1cc(C(=O)Nc2cccc(-n3nc(Nc4ccc5[nH]ncc5c4Cl)c4ccccc43)n2)cn1 [Example 46] | < 300 nM | < 300 nM |
| Clc1c(Nc2nnc(-c3ccnc(-c4ncco4)c3)o2)ccc2[nH]ncc12 [Example 49] | < 300 nM | < 300 nM |
| COc1cc(-n2cc(C)c(Nc3ccc4[nH]ncc4c3Cl)n2)ccc1OCC(=O)NC(C)C [Example 13] | < 300 nM | 300 to 3000 nM |
| O=C(Cc1ncc[nH]1)Nc1cccc(-n2nc(Nc3ccc4[nH]ncc4c3)c3ccccc32)c1 [Example 27] | 300 to 3000 nM | 3000 to 10000 nM |
| Cc1cn(-c2ccc3c(c2)CCN(CC(C)C)C3=O)nc1Nc1ccc2[nH]ncc2c1Cl [Example 84, 6-[3-[(4-chloro-1H-indazol-5-yl)amino]-4-methyl-pyrazol-1-yl]-2-isobutyl-3,4-dihydroisoquinolin-1-one] | < 300 nM | 3000 to 10000 nM |
| O=C(Nc1cccc(-c2cc(Nc3ccc4[nH]ncc4c3)no2)c1)c1c[nH]cn1 [Example 34, N-(3-(3-((1H-indazol-5-yl)amino)isoxazol-5-yl)phenyl)-1H-imidazole-4-carboxamide] | < 300 nM | < 300 nM |
| Cc1cn(-c2ccc3c(c2)CCN(C(=O)C2CCCC2)C3)nc1Nc1ccc2[nH]ncc2c1Cl [Example 81] | > 10000 nM | > 10000 nM |
| Cc1cn(-c2ccc3c(c2)CCNC3=O)nc1Nc1ccc2[nH]ncc2c1Cl [Example 83, 6-(3-((4-chloro-1H-indazol-5-yl)amino)-4-methyl-1H-pyrazol-1-yl)-3,4-dihydroisoquinolin-1(2H)-one] | < 300 nM | < 300 nM |
| O=C(Nc1cccc(-n2nc(Nc3ccc4[nH]ncc4c3Cl)c3ccccc32)c1)c1cccnc1 [Example 32] | < 300 nM | > 10000 nM |
| COc1cc(-n2cc(C)c(Nc3ccc4[nH]ncc4c3Cl)n2)ccc1C(=O)N1CCCC1 [Example 89] | 300 to 3000 nM | > 10000 nM |
| Cc1coc(-c2cc(-c3nnc(Nc4ccc5[nH]ncc5c4Cl)o3)ccn2)n1 [Example 48, N-(4-chloro-1H-indazol-5-yl)-5-(2-(4-methyloxazol-2-yl)pyridin-4-yl)-1,3,4-oxadiazol-2-amine] | < 300 nM | < 300 nM |
| O=C(Nc1cccc(-c2nnc(Nc3ccc4[nH]ncc4c3)o2)c1)c1cn[nH]c1 [Example 37] | > 10000 nM | > 10000 nM |
| Cn1cc(C(=O)Nc2cccc(-c3cc(Nc4ccc5[nH]ncc5c4Cl)no3)c2)cn1 [Example 74, N-(3-(3-((4-chloro-1H-indazol-5-yl)amino)isoxazol-5-yl)phenyl)-1-methyl-1H-pyrazole-4-carboxamide] | < 300 nM | < 300 nM |
| Cn1cc(C(=O)Nc2cccc(-c3nc(Nc4ccc5[nH]ncc5c4Cl)no3)c2)cn1 [Example 63, N-(3-(3-((4-chloro-1H-indazol-5-yl)amino)-1,2,4-oxadiazol-5-yl)phenyl)-1-methyl-1H-pyrazole-4-carboxamide] | < 300 nM | < 300 nM |
| COc1cc(-c2nnc(Nc3ccc4[nH]ncc4c3Cl)o2)ccc1OCC(=O)NC(C)C [Example 72, 2-[4-[5-[(4-chloro-1H-indazol-5-yl)amino]-1,3,4-oxadiazol-2-yl]-2-methoxy-phenoxy]-N-isopropyl-acetamide] | < 300 nM | 300 to 3000 nM |
| Clc1c(Nc2nnc(-c3cccc(-c4ncco4)c3)o2)ccc2[nH]ncc12 [Example 50, N-(4-chloro-1H-indazol-5-yl)-5-(3-(oxazol-2-yl)phenyl)-1,3,4-oxadiazol-2-amine] | < 300 nM | < 300 nM |
| CC(C)NC(=O)COc1ccc(-n2nc(Nc3ccc4[nH]ncc4c3)c3ccccc32)cc1 [Example 16] | 300 to 3000 nM | > 10000 nM |

| SMILES | IC50 [1] | IC50 [2] |
| --- | --- | --- |
| O=C(Nc1cccc(-c2noc(Nc3ccc4[nH]ncc4c3)n2)c1)c1cccnc1 [Example 44] | < 300 nM | < 300 nM |
| COc1cc(-n2ccc(Nc3ccc4[nH]ncc4c3Cl)n2)ccc1OCC(=O)NC(C)C [Example 12] | < 300 nM | 300 to 3000 nM |
| COc1cc(-n2cc(C)c(Nc3ccc4[nH]ncc4c3Cl)n2)ccc1C(=O)NC1CCCC1 [Example 87] | < 300 nM | 300 to 3000 nM |
| Cc1cn(-c2ccc3c(c2)OCCN3CC(=O)NC(C)C)nc1Nc1ccc2[nH]ncc2c1Cl [Example 77, 2-[7-[3-[(4-chloro-1H-indazol-5-yl)amino]-4-methyl-pyrazol-1-yl]-2,3-dihydro-1,4-benzoxazin-4-yl]-N-isopropyl-acetamide] | 300 to 3000 nM | 3000 to 10000 nM |
| O=C(Nc1cccc(-c2cc(Nc3ccc4[nH]ncc4c3)no2)c1)c1cccnc1 [Example 35] | < 300 nM | 300 to 3000 nM |
| COc1cc(-n2cc(C)c(Nc3ccc4[nH]ncc4c3Cl)n2)ccc1C(=O)NC(C)C [Example 85, 4-(3-((4-chloro-1H-indazol-5-yl)amino)-4-methyl-1H-pyrazol-1-yl)-N-isopropyl-2-methoxybenzamide] | < 300 nM | < 300 nM |
| Cn1cc(-c2nnc(Nc3ccc4[nH]ncc4c3Cl)o2)cc(NC(=O)c2ccccc2F)c1=O [Example 52, N-(5-(5-((4-chloro-1H-indazol-5-yl)amino)-1,3,4-oxadiazol-2-yl)-1-methyl-2-oxo-1,2-dihydropyridin-3-yl)-2-fluorobenzamide] | < 300 nM | < 300 nM |
| Cn1cc(C(=O)Nc2cccc(-n3ccc(Nc4ccc5[nH]ncc5c4)n3)c2)cn1 [Example 1, N-(3-(3-((1H-indazol-5-yl)amino)-1H-pyrazol-1-yl)phenyl)-1-methyl-1H-pyrazole-4-carboxamide] | 300 to 3000 nM | 3000 to 10000 nM |
| COc1cc(-n2ccc(Nc3ccc4[nH]ncc4c3)n2)ccc1OCC(=O)NC(C)C [Example 11] | 300 to 3000 nM | > 10000 nM |
| O=C(Nc1cccc(-n2nc(Nc3ccc4[nH]ncc4c3)c3ccccc32)c1)c1c[nH]cn1 [Example 22] | 300 to 3000 nM | 3000 to 10000 nM |
| Cn1cc(C(=O)Nc2cc(-n3nc(Nc4ccc5[nH]ncc5c4Cl)c4ccccc43)ccn2)cn1 [Example 53, N-(4-(3-((4-chloro-1H-indazol-5-yl)amino)-1H-indazol-1-yl)pyridin-2-yl)-1-methyl-1H-pyrazole-4-carboxamide] | < 300 nM | 3000 to 10000 nM |
| COc1cc(-n2nc(Nc3ccc4[nH]ncc4c3Cl)c3ccccc32)ccc1OCC(=O)NC(C)C [Example 18] | 300 to 3000 nM | 3000 to 10000 nM |
| O=C(Nc1cccc(-c2nc(Nc3ccc4[nH]ncc4c3)no2)c1)c1cn[nH]c1 [Example 40] | < 300 nM | < 300 nM |
| Cn1cc(-c2nc3cc(-n4nc(Nc5ccc6[nH]ncc6c5Cl)c5ccccc54)ccc3o2)cn1 [Example 66] | > 10000 nM | > 10000 nM |
| O=C(Nc1cccc(-c2nc(Nc3ccc4[nH]ncc4c3Cl)no2)c1)c1ccccc1F [Example 64] | < 300 nM | 300 to 3000 nM |
| Cc1cc(Nc2ccc3[nH]ncc3c2)nn1-c1cccc(NC(=O)c2c[nH]cn2)c1 [Example 5, N-(3-(3-((1H-indazol-5-yl)amino)-5-methyl-1H-pyrazol-1-yl)phenyl)-1H-imidazole-4-carboxamide] | < 300 nM | 300 to 3000 nM |
| Cc1cn(-c2ccc3c(c2)CCN(C(=O)C2CC2)C3)nc1Nc1ccc2[nH]ncc2c1Cl [Example 79, [6-[3-[(4-chloro-1H-indazol-5-yl)amino]-4-methyl-pyrazol-1-yl]-3,4-dihydro-1H-isoquinolin-2-yl]-cyclopropyl-methanone] | < 300 nM | 3000 to 10000 nM |
| Cn1cc(C(=O)Nc2cc(-c3nnc(Nc4ccc5[nH]ncc5c4Cl)o3)cn(C)c2=O)cn1 [Example 67, N-[5-[5-[(4-chloro-1H-indazol-5-yl)amino]-1,3,4-oxadiazol-2-yl]-1-methyl-2-oxo-3-pyridyl]-1-methyl-pyrazole-4-carboxamide] | < 300 nM | < 300 nM |
| Cn1cc(C(=O)Nc2cccc(-n3nc(Nc4ccc5[nH]ncc5c4Cl)c4ccncc43)c2)cn1 [Example 59] | < 300 nM | > 10000 nM |
| Cn1cc(C(=O)Nc2ccnc(-n3nc(Nc4ccc5[nH]ncc5c4Cl)c4ccccc43)c2)cn1 [Example 47] | > 10000 nM | > 10000 nM |
